These results are taken from US5866570A, “Treatment of vascular leakage and related syndrome such as septic shock by administration of metalloproteinase inhibitors” (Wisconsin Alumni Research Foundation, priority 1994, dated 1999).

≈ marks a conversion by molar mass, not a printed value. Where only a bound is given, the exact number is not on record here.

In series [1] the test system is BALB/C mice. Nature of the series: septic shock induced by i.p. endotoxin (Salmonella abortus equi). It is filed as in vivo. The conditions noted are these: for Survival/Total Ratio after 24 h / Survival/Total Ratio after 48 h / Survival/Total Ratio after 72 h: endotoxin2 (Salmonella abortus equi) i.p., drug i.p. 1 h before, 9 h and 20 h after. As for the experimental part:
Effect of razoxane in preventing death due to endotoxin-induced septic shock. Twelve BALB/c mice (female, 10-12 weeks old, 18-20 g) were injected i.p. with endotoxin (Salmonella abortus equi) twice at time zero (70 μg/mouse) and 48 h (30 μg/mouse). Razoxane (2 mg/mouse, in 1% sodium carboxymethyl cellulose) was given i.p. three times, i.e., 1 h. before, 9 h. and 20 h. after injection of initial dose of endotoxin. Another twelve mice, injected with endotoxin as above, were treated with buffer solution (1 % sodium carboxymethyl cellulose) as negative controls. It can be seen therein that the majority of control mice were dead within 50 hours of the initial endotoxin administration. In contrast, approximately 80% of the razoxane treated mice were still alive after 50 hours. Moreover, about 60% of the razoxane treated mice were still alive 100 hours after endotoxin administration, and recovered later on.
Effect of Compound 80 in preventing death due to endotoxin-induced septic shock. Twenty BALB/c mice (female, 10-12 weeks old, 18-20 g) were injected i.p. with endotoxin (Salmonella abortus equi, 100 μg/mouse). Compound 80 (0.33 mg/mouse) was given i.p. to 10 mice three times, i.e., 1 hour before, 9 hours and 20 hours after injection of endotoxin. The other 10 mice were injected with diluents as negative controls. The number of the mice survived at different periods to time after endotoxin injection were recorded. (P<0.0002).

Series [2] concerns L1210 leukemia. As to conditions: 13 doses at 30 mg/kg; cited from earlier work.
Series [3] relates to retired bred BALB/C mice. Description: septic shock induced by i.v. endotoxin (E. coli 026:B6). As to conditions: razoxane 100 μg/g i.p. before 200 μg endotoxin i.v.; heparin. It is filed as in vivo. The protocol:
Two retired bred BALB/C mice were injected with 100 μg of endotoxin and 3 units of heparin i.v., followed by 10 units heparin subcutaneously. Another two mice were treated the same except with 200 μg of endotoxin. All died within 24 h.
Six retired bred BALB/C mice were treated with razoxane (100 μg/g body weight i.p.). The mice were then injected with 200 μg of endotoxin and 3 units of heparin i.v., followed by 10 units heparin subcutaneously.

The test system of series [4] is OVCAR-3 cells. Nature of the series: OVCAR-3 human ovarian cancer model in nude mice. The class given is in vivo. The conditions noted are these: 30 mg/kg i.p., one dose/day 5 consecutive days/week, from 24 hours before 20 million cells i.p. As for the experimental part:
Dose and Schedule--Razoxane was suspended in sterile 1% CMC (carboxymethyl cellulose) 0.9% NaCl by sonication in a water bath. Mice received 30 mg/kg drug in 10 μl/g CMC per i.p. dose beginning 24 hours prior to cell implantation. Each mouse received one dose/day i.p. for 5 consecutive days with 2 days of recovery. Treatment continued until mouse death or sacrifice.
OVCAR-3 cells--were received from Dr. Tom Hamilton and are maintained by passage of ascites directly from the mouse. The ascites is harvested from the mouse by rinsing the peritoneal cavity with HBSS, treated briefly with Dispase to dissociate clumps, centrifuged, counted, resuspended in HBSS and 20 million cells injected i.p. per mouse.
Mice--HSD nu/nu female mice 6 weeks old (18-22 g) are weighed, tagged with a metal ear clip, and randomized for treatment or control groups. Mice are weighed daily and the dose of drug or vehicle is calculated.
Visible ascites appears around day 14 with small solid tumors at the sites of injections. The mice swell with hemorrhagic ascites prior to death. At necropsy mice contain massive invasive carcinomatosis obliterating most of the normal organs of the peritoneal cavity with significant metastasis to the lungs. A 25% increase in mean/median survival time with drug treatment is considered significant in this model.

For series [5], the system named is mouse-embryo fibroblasts. As to conditions: cited from earlier work.
Series [6] concerns BALB/C mice. Description: septic shock induced by galactosamine and endotoxin (E. coli 026:B6). It is filed as in vivo. As for the experimental part:
Ten BALB/C mine were injected i.p. with 18 mg of D-galactosamine and 1 μg of endotoxin. Three units of heparin were given i.v. and 10 units heparin were given subcutaneously at 30 min to prevent intravascular coagulation.
Ten BALB/C mice were treated with razoxane (100 μg/g body weight i.p., dissolved in 1% carboxymethyl-cellulose in normal saline). The mice were then injected i.p. with 18 mg of D-galactosamine and 1 μg of endotoxin. Three units of heparin were given i.v. and 10 units heparin were given subcutaneously to each mice at 30 min.

For series [7] the following is noted: at 25° C.; cited from earlier work.
[8] abbreviates: razoxane 2 mg/mouse i.p. three times, endotoxin 70 μg at 0 h and 30 μg at 48 h.
[9] abbreviates: galactosamine + endotoxin1 (E. coli 026:B6).

As to `CC1(C)O[C@H]2C[C@H](N3CC(=O)NC(=O)C3)[C@@H](N3CC(=O)NC(=O)C3)C[C@@H]2O1` (relative stereo) [Compound 80, (3aα, 5β, 6α, 7aβ)-4,4'-(hexahydro-2,2-dimethyl-1,3-benzodioxole-5,6-diyl)bis(2,6-piperazinedione)], in series [1], the “Survival/Total Ratio after 24 h” value was 10/10, the “Survival/Total Ratio after 48 h” value is reported as 8/10 and the “Survival/Total Ratio after 72 h” value is reported as 6/10.

In the case of `CC(CN1CC(=O)NC(=O)C1)N1CC(=O)NC(=O)C1` (centres unmarked) [razoxane], in series [2], the “increase in survival time” value is given as 137%. For the same molecule, in series [3], the “mice surviving more than 24 h” value is “Two out of six”. In series [1], the “Survival/Total Ratio after 24 h” value is 10/12, the “Survival/Total Ratio after 48 h” value was 9/12 and the “Survival/Total Ratio after 72 h” value was 7/12. For the same molecule, in series [1] (setting [8]), the “treated mice still alive 100 hours after endotoxin administration” value is “about 60%” and the “treated mice still alive after 50 hours” value is recorded as “approximately 80%”. Besides, the “difference in the survival time between treated and control mice” value in series [4] is reported as more than 33%. In addition, the “IC50, inhibition of [3H]thymidine incorporation” value in series [5] was 0.5 µg/mL. Further, in series [6] (setting [9]), the “Survival/Total Ratio after 24 h” value is 2/10, the “Survival/Total Ratio after 48 h” value is on record as 2/10 and the “Survival/Total Ratio after 72 h” value is listed as 2/10. For the same molecule, the “mice surviving more than 24 h” value in series [6] (razoxane 100 μg/g i.p. before 18 mg D-galactosamine + 1 μg endotoxin i.p., heparin) is “Two out of ten”. In addition, the solubility in water in series [7] was 3000 µg/mL (≈ 11.2 mM).
